Reference: patent US20240368710A1, “STREAMLINED PLATFORM FOR BACTERIAL IDENTIFICATION AND ANTIBIOTIC SUSCEPTIBILITY TEST” (THE JOHNS HOPKINS UNIVERSITY, priority 2017, published 2024)

Tests used:
E. coli = assay: bulk qPCR/HRMA antibiotic susceptibility test (growth by 16S rDNA Cq); assay type: cell-based, Escherichia coli; conditions: for Cq value compared to the no-drug (growth) controls: 2 hours of incubation with gentamicin (1 μg/mL, FIG. 6A)
Protocol: (§1) FIG. 1 illustrates a protocol for combined ID (Identification of pathogen species) and AST (antibiotic susceptibility test) in bulk format. The protocol begins by dividing the sample into 2 portions; with and without antibiotic followed by brief incubation. Then, the cultured samples are added into PCR mixture to perform qPCR & HRMA. An additional step of DNA isolation may be performed prior to PCR. AST is determined based on Cq differences (ΔCq) and ID is obtained from HRMA based classification.
FIG. 5A-5B illustrates the comparison between the proposed AST approaches to conventional broth microdilutional method. […] (b) Conventional broth microdilutional method of the same drug concentration with overnight incubation.
(§2) FIG. 6A-6C illustrates an integrated broad-scale pathogen identification and growth detection via qPCR and HRMA. (a) Measurement of bacterial growth of E. coli and S. aureus under treatment of gentamicin (1 μg/mL) via qPCR detection of 16S rDNA. The growth status and antibiotic susceptibility of bacteria were determined by comparing the Cq value to the no-drug control. (b) Measured melt curves from amplicons of E. coli and S. aureus for both sensitive and resistant strands. […]
(§3) The inventors have designed an assay protocol to enable combined ID and AST into a single step process (FIG. 1) and using the whole blood sample as an example (FIG. 4). […] The subsequent translation to the microfluidic single-cell assay in described below can facilitate digital diagnostics with enhanced sensitivity, specificity and quantification capability.
The present invention measures bacterial growth by quantifying the bacterial DNA content using qPCR. […] When performing AST, the sample from culture tubes are added to PCR mixes immediately after brief bacterial culture for subsequent detection and quantification of bacterial DNA via qPCR. The quantification cycle (Cq) value indicates the difference in growth rate of different strains under the drug treatment; thereby the antibiotic susceptibility can be determined. […]

S. aureus [1] = assay: as above; assay type: cell-based, Staphylococcus aureus; conditions: 2 hours of incubation with gentamicin (1 μg/mL, FIG. 6A)
Protocol: as §1
as §2, with “(a) Measurement of bacterial growth of E. coli and S. aureus under treatment of gentamicin (1 μg/mL) via qPCR detection of 16S rDNA.” left out
as §3
The present invention measures bacterial growth by quantifying the bacterial DNA content using qPCR. […]

S. aureus [2] = assay: digital PCR/HRMA AST of mixed sample in 96-well plate; assay type: cell-based, Staphylococcus aureus; conditions: sensitive strain in mix with E. faecalis; 2 hours with and without 8 μg/mL of gentamicin; DNA diluted 60000-fold
Protocol: (§4) FIG. 2 illustrates a protocol for combined ID and AST using digital detection. The protocol begins by dividing the sample into 2 portions; with and without antibiotic followed by brief incubation. DNA isolation can be performed to extract bacterial DNA from the samples. Then, the samples are mixed with PCR mixture and diluted across very large number of isolated small volume reactions so that there is either zero or one bacterial DNA present in any individual reaction to perform digital PCR & digital HRMA. ID is obtained from HRMA based classification on each positive reactions. AST of each target bacterial species is determined by comparing the quantity of the DNA of the target bacteria from the 2 portions which indicates by the total number of positive identification associated to the identified target bacteria species.
(§5) FIG. […] Orange lines represent S. aureus and blue lines represent E. faecalis. (a) Melt curves from the sample incubated without gentamicin (b) Melt curves from the sample incubated with gentamicin (c) AST can be determined using absolute count of each species which bases on the total number of positive reactions of each specific melt curve from HRMA.
(§6) This method (FIG. 2) begins by splitting the sample to incubate with and without antibiotic. […] The species of unidentified bacteria in each positive reactions is then determined preferably using HRMA. […]

E. faecalis = assay: as above; assay type: cell-based, Enterococcus faecalis; conditions: sensitive strain in mix with S. aureus; 2 hours with and without 8 μg/mL of gentamicin; DNA diluted 60000-fold
Protocol: as §4, §5, §6

Q: What does the source list for gentamicin?
A: MIC range by ΔCq approach (E. coli; E. coli sensitive strain, gentamicin 0.125-8 μg/mL, FIG. 5): corresponds to standard CLSI MIC value and the conventional method; Cq value compared to the no-drug (growth) controls (E. coli; resistant strand of E. coli): close to the no-drug controls; Cq value compared to the no-drug (growth) controls (E. coli; sensitive strand of E. coli): increased Cq value; Cq value compared to the no-drug (growth) controls (S. aureus [1]; resistant strand of S. aureus): close to the no-drug controls; Cq value compared to the no-drug (growth) controls (S. aureus [1]; sensitive strand of S. aureus): increased Cq value; count of no-gentamicin controls greater than gentamicin-treated samples (S. aureus [2]): 3-5 folds; count of no-gentamicin controls greater than gentamicin-treated samples (E. faecalis): 3-5 folds
